Legend:
Format in all cases: biochemical
[1] = biological target: T1, beta-glucuronidase (GUS) (Homo sapiens, UniProt P08236); test: Beta-glucuronidase (GUS) assay
T1 construct: purchased Sigma-Aldrich
T1 sequence (P08236 23-651): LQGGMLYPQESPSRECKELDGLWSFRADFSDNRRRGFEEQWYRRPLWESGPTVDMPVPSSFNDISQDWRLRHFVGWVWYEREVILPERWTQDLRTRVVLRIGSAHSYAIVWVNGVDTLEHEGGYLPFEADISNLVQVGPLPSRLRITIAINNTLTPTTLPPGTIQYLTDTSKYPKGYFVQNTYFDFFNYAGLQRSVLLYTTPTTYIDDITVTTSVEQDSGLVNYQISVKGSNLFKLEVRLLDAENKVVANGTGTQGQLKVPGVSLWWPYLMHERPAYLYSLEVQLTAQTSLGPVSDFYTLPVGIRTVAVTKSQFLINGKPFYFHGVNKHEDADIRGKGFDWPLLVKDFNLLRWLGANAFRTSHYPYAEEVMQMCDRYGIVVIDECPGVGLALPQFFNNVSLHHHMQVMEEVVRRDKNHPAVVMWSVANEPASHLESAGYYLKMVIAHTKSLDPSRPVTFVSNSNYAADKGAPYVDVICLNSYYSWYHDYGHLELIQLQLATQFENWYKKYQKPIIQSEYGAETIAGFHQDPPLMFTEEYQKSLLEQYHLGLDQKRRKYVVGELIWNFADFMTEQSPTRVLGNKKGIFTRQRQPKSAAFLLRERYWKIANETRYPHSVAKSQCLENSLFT
Protocol: The source of the human enzyme was Sigma-Aldrich. GUS was incubated with the substrate in 50 mM MES, pH 6.3, for 15 minutes.

[2] = system: panel of recombinant human P450s; test: Two-step luminescent screen of luciferin derivatives against a panel of recombinant human P450s and HLM; details: 50 μM substrate, panel of FIGS. 17-18
Protocol: P450s are Supersomes™ purchased from Discovery Labware (BD/Gentest). […] HLM is human liver microsomes.
1× substrate concentration: 50 μM.
The HLM reactions contained […] reaction, except where indicated otherwise. Control insect cell membranes were at 50 μg/50 μL.
For FIG. 20, the panel of human P450s was screened as described above.

[3] = biological target: T2, yeast alcohol dehydrogenase (Saccharomyces cerevisiae, UniProt P00330); test: Conversion of luciferol by yeast alcohol dehydrogenase; details: room temperature
T2 construct: purchased Sigma Chem Co. A 7011
T2 sequence (P00330 1-348): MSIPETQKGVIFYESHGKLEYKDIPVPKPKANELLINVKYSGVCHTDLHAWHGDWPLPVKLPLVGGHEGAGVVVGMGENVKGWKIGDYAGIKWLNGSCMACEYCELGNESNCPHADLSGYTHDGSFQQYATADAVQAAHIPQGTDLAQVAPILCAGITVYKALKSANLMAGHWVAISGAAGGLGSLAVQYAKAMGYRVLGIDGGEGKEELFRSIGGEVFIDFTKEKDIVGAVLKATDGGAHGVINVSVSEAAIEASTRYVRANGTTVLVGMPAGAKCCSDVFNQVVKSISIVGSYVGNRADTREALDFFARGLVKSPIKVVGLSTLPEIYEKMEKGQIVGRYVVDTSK
Protocol: A luciferin derivative, luciferol, was employed as a substrate for alcohol dehydrogenase (ADH). The derivative was tested in a two step format. For the first step, the derivative was added to a mixture with one of four ADHs. At different times after the reaction was initiated, a portion was removed and mixed with a luciferase reaction mixture. Reactions in which light production increased over time indicate that luciferol is a substrate for the ADH in that reaction.
Y ADH solution: 7500 units of yeast alcohol dehydrogenase (Sigma Chem Co. A 7011) was dissolved in 1 ml of 50 mM Bis Tris pH 6.5.
NAD+ solution: 66 mg of NAD+(Sigma Chem. Co. N 1511-250) was dissolved in 2 ml of Bis Tris, pH 6.5 and 8 ml of water.
Luciferol solution: approximately 4 mg of luciferol was dissolved in 1 ml of dimethylformamide (Aldrich 27,054-7).
AU reactions were kept at room temperature.

With Cc1cc(=O)oc2cc(O[C@@H]3O[C@H](C(=O)O)[C@@H](O)[C@H](O)[C@H]3O)ccc12 [4-methylumbelliferyl glucuronide] the “signal-to-noise, fluorescence” value ([1]; [GUS] 4.3 ng/ml) was 7.5, the “signal-to-noise, fluorescence” value ([1]; [GUS] 8.7 ng/ml) was 15.6 and the “signal-to-noise, fluorescence” value ([1]; [GUS] 34.7 ng/ml) was 76.5. The “signal-to-noise, fluorescence” value ([1]; [GUS] 69.4 ng/ml) was 164.6, the “signal-to-noise, fluorescence” value ([1]; [GUS] 138.8 ng/ml) was 376.8 and the “signal-to-noise, fluorescence” value ([1]; [GUS] 277.5 ng/ml) was 861.4.

In the case of Cc1cc(C)c(COc2ccc3nc(C4=N[C@@H](C(=O)O)CS4)sc3c2)c(C)c1 [6′(2,4,6-trimethylbenzyloxy)-luciferin], the “P450 enzyme activity / selectivity (words)” value [2] is reported as “selective for three members of the CYP3A subfamily, CYP3A4, CYP3A5 and CYP3A7” and the “P450 enzyme activity / selectivity (words)” value ([2]; listed as 6(2,4,6 trimethylbenzyl)-luciferin) is reported as “showed substantial activity with CYP3A4 and did not show substantial cross reactivity with CYP4F12”.

For O=C(O)[C@H]1CSC(c2nc3ccc(OCc4ccccc4C(F)(F)F)cc3s2)=N1 [6′(o-trifluoromethylbenzyloxy)-luciferin], the “P450 enzyme activity / selectivity (words)” value [2] was “selective for three members of the CYP3A subfamily, CYP3A4, CYP3A5 and CYP3A7” and the “P450 enzyme activity / selectivity (words)” value ([2]; listed as 6—O-trifluoromethylbenzyl luciferin) was “showed substantial activity with CYP3A4 and did not show substantial cross reactivity with CYP4F12”.

With O=C(O)[C@H]1CSC(c2nc3ccc(OCc4c(F)c(F)c(F)c(F)c4F)cc3s2)=N1 [6′-(2,3,4,5,6-pentafluorobenzyloxy)-luciferin] the “P450 enzyme activity / selectivity (words)” value [2] was “selective for three members of the CYP3A subfamily, CYP3A4, CYP3A5 and CYP3A7” and the “P450 enzyme activity / selectivity (words)” value ([2]; listed as 6(2,3,4,5,6 pentafluorbenzyloxy)-luciferin) was “showed substantial activity with CYP3A4 and did not show substantial cross reactivity with CYP4F12”.

O=C(O)[C@H]1CSC(c2nc3ccc(OCSc4ccc(Cl)cc4)cc3s2)=N1 [6′-p-chlorophenylthiol-methoxy-luciferin, 6-(4-Chloro-phenylthiomethoxy)luciferin] was tested, and the “P450 enzyme activity / selectivity (words)” value [2] was “showed selectivity for CYP3A7”.

For O=C(O)[C@H]1CSC(c2ccc3cc(OCOCc4ccccc4)ccc3n2)=N1 [6′benzyloxymethoxy-quinolylluciferin], the “P450 enzyme activity / selectivity (words)” value [2] was “selective for three members of the CYP3A subfamily, CYP3A4, CYP3A5 and CYP3A7”.

With O=C(O)C1CSC(c2nc3ccc(OCc4cccc(CN5CCN(c6ccccc6)CC5)c4)cc3s2)=N1 (stereo not drawn) [Luciferin 3-(4-phenylpiperazin-1-yl)methylbenzyl ether] the “P450 enzyme activity / selectivity (words)” value [2] was “selective for three members of the CYP3A subfamily, CYP3A4, CYP3A5 and CYP3A7” and the “P450 enzyme activity / selectivity (words)” value ([2]; listed as 6′(3-((4-phenylpiperizin-1-yl))methyl)benzyloxy) luciferin) was “did not cross react with 4F1 2”.

O=C(Nc1ccc2nc(C3=NC(C(=O)O)CS3)sc2c1)OCc1ccccc1 (stereo not drawn) [N-benzyloxycarbonyl aminoluciferin] was tested, and the “P450 enzyme activity / selectivity (words)” value [2] was “strong selectivity for CYP1A1”.

With CC(C)COC(=O)Nc1ccc2nc(C3=NC(C(=O)O)CS3)sc2c1 (stereo not drawn) [N-isobutoxycarbonyl aminoluciferin] the “P450 enzyme activity / selectivity (words)” value [2] was “strong selectivity for CYP1A1”.

With COc1ccc2cc(C3=N[C@@H](C(=O)O)CS3)ccc2c1 [Naphthylluciferin 6-methyl ether] the “P450 enzyme activity / selectivity (words)” value [2] was “substrate for 4A11”.

With COc1ccc2nc(C3=NC(C(=O)O)CS3)ccc2c1 (stereo not drawn) [Quinolylluciferin 6-methyl ether] the “P450 enzyme activity / selectivity (words)” value [2] was “preferred substrate for 1A2 and 4A1 1” and the “P450 enzyme activity / selectivity (words)” value ([2]; listed as quinolyl luciferin-6-methyl ether) was “enhanced selectivity for CYP4A11”.

In the case of COC(=O)[C@H]1CSC(c2nc3ccc(OC)cc3s2)=N1 [carboxyl ester of luciferin-ME, carboxyl methyl ester of luciferin-ME], the “P450 enzyme activity / selectivity (words)” value [2] is reported as “reacted strongly with several other P450s including CYP2C19”.

With COC(=O)[C@H]1CSC(c2nc3ccccc3s2)=N1 [carboxyl methyl ester of deoxyluciferin] the “P450 enzyme activity / selectivity (words)” value [2] was “substantial activity with CYP2C19 and strong selectivity for this enzyme over the others tested”.

O=C(OCc1cccnc1)[C@H]1CSC(c2nc3ccccc3s2)=N1 [carboxyl picolinyl ester of luciferin-H] was tested, and the “P450 enzyme activity / selectivity (words)” value [2] was “preference for 2C19, 1A1 and 1A2”.

In the case of COc1ccc2nc(C3=N[C@@H](C(=O)O)CS3)sc2c1 [luciferin 6-methyl ether, reference compound], the “P450 enzyme activity / selectivity (words)” value [2] is reported as “extremely low activity with CYP2D6”.

COc1ccc2nc(C3=N[C@@H](C(=O)NN)CS3)sc2c1 [luciferin-6-methylether hydrazide] was tested, and the “P450 enzyme activity / selectivity (words)” value [2] was “good selectivity for CYP 1A2 over the other P450s tested”.

In the case of OC[C@H]1CSC(c2nc3ccc(O)cc3s2)=N1 [luciferol], the Light produced ([3]; Rx 7: 5 μl yeast ADH, 30 minutes after luciferol addition) is reported as 6.184, the Light produced ([3]; Rx 7: 5 μl yeast ADH, 60 minutes after luciferol addition) is reported as 6.052 and the Light produced ([3]; Rx 7: 5 μl yeast ADH, 95 minutes after luciferol addition) is reported as 5.980. For the same compound, the Light produced ([3]; Rx 7: 5 μl yeast ADH, 190 minutes after luciferol addition) was 6.640, the Light produced ([3]; Rx 7: 5 μl yeast ADH, 280 minutes after luciferol addition) was 7.988 and the Light produced ([3]; Rx 8: 10 μl yeast ADH, 30 minutes after luciferol addition) was 6.126. For the same compound, the Light produced ([3]; Rx 8: 10 μl yeast ADH, 60 minutes after luciferol addition) was 5.468, the Light produced ([3]; Rx 8: 10 μl yeast ADH, 95 minutes after luciferol addition) was 5.552 and the Light produced ([3]; Rx 8: 10 μl yeast ADH, 190 minutes after luciferol addition) was 6.198. It also gave a Light produced ([3]; Rx 8: 10 μl yeast ADH, 280 minutes after luciferol addition) of 6.903, a Light produced ([3]; Rx 9: 20 μl yeast ADH, 30 minutes after luciferol addition) of 5.406 and a Light produced ([3]; Rx 9: 20 μl yeast ADH, 60 minutes after luciferol addition) of 5.608. It also gave a Light produced ([3]; Rx 9: 20 μl yeast ADH, 95 minutes after luciferol addition) of 6.301, a Light produced ([3]; Rx 9: 20 μl yeast ADH, 190 minutes after luciferol addition) of 5.825 and a Light produced ([3]; Rx 9: 20 μl yeast ADH, 280 minutes after luciferol addition) of 6.734. For the same compound, the Light produced ([3]; Rx 10: 20 μl yeast ADH, 10 μl luciferol, 30 minutes after luciferol addition) was 9.672, the Light produced ([3]; Rx 10: 20 μl yeast ADH, 10 μl luciferol, 60 minutes after luciferol addition) was 9.531 and the Light produced ([3]; Rx 10: 20 μl yeast ADH, 10 μl luciferol, 95 minutes after luciferol addition) was 10.00. The Light produced ([3]; Rx 10: 20 μl yeast ADH, 10 μl luciferol, 190 minutes after luciferol addition) was 10.36 and the Light produced ([3]; Rx 10: 20 μl yeast ADH, 10 μl luciferol, 280 minutes after luciferol addition) was 11.71.

With O=C(O)C1CSC(c2ccc3cc(OCc4ccccc4)ccc3n2)=N1 (stereo not drawn) [quinolylluciferin 6-benzyl ether] the “P450 enzyme activity / selectivity (words)” value [2] was “preferred substrate for 3A7, and to a lesser degree a substrate for 3A4 and 2C8”.

In the case of COc1ccc2nc(C3=NC(C(=O)O)CS3)cnc2c1 (stereo not drawn) [quinoxalylluciferin 6-methyl ether], the “P450 enzyme activity / selectivity (words)” value [2] is reported as “substrate for 4A11”.

Reference: US10745365B2, “Luminogenic and fluorogenic compounds and methods to detect molecules or conditions” (Promega Corporation, priority 2005, dated 2020)
